According to US7700347B2, “Methods and apparatuses for conducting assays in animals” (The Forsyth Institute, priority 2005, dated 2010):

System: planaria
Assay: planaria movement (worm mobility) after drug treatment, automated tracking
Type: in vivo, Dugesia tigrinia
Settings: 24 hours of drug treatment, movement observed for three hours, compared to control carrier (water+DMSO), statistically significant
Method: The following methods were used for Examples 5-8. The species of planaria used in these studies was Dugesia tigrinia, obtained from Ward's Natural Science. The planaria colonies were stored in natural spring water at 22.5° C., and kept on a 9 hour light/15 hour dark cycle. The colonies were fed once per week with organic beef liver. Their water was changed several hours after feeding and 3 days following each feeding. Worms were not fed (e.g., they were starved) the week they were used in an experiment because starved worms were less likely to fission during the experiment.
For the duration of an experiment, individual worms were placed in a reaction well and a plurality of reaction wells were arrayed, as shown in FIG. 10. The worms were not fed during the experiment. Each reaction well included electrodes made of a 90%/10% platinum/iridium alloy for delivering current. […]
FIG. 16 summarizes results depicting the effects of two agents on planaria behavior. Specifically, we assessed the effects of two psychiatric drugs that modulate serotonergic signaling, p-chlorophenylalanine (PCPA) and reserpine, on worm mobility.
Briefly, planaria were cultured in the presence of control carrier (water+DMSO), 625 micrograms/mL of PCPA, or 21 micrograms/mL of reserpine. […] The speed, position, and distance traveled of individual worms were monitored following drug treatment and compared to controls. […]

Structure (SMILES) | effect on planaria movement (worm movement, average speed) (625 micrograms/mL in culture) | effect on planaria movement (worm movement, average speed) (21 micrograms/mL in culture)
N[C@@H](Cc1ccc(Cl)cc1)C(=O)O (racemic) [PCPA, p-chlorophenylalanine] | increased planaria movement | –
COC(=O)[C@H]1[C@H]2C[C@@H]3c4[nH]c5cc(OC)ccc5c4CCN3C[C@H]2C[C@@H](OC(=O)c2cc(OC)c(OC)c(OC)c2)[C@@H]1OC [reserpine] | – | decreased planaria movement
